From patent US11098010B2 (priority 2017, dated 2021)
Where two headings read alike, the source gives them in different places.

Tested on: HBV rcDNA in HepDE19 cells
Assay: HepDE19 assay with bDNA quantitation of HBV rcDNA
Assay type: cell-based, hepatitis B virus (HBV)
[1] = HepDE19 cells, inhibition of rcDNA formation, 7 day incubation, top concentration 25 μM, read-out: DE-19 bDNA EC50
[2] = Hepatitis B virus, HepDE19, 168 h, HepDE19 cells, inhibition of rcDNA formation, 7 day incubation, top concentration 25 μM, read-out: DE-19 bDNA EC50
[3] = Hepatitis B virus, HepDE19, 168 h, read-out: DE-19 bDNA EC50 (μM), HepDE19 cells, inhibition of rcDNA formation, 7 day incubation, top concentration 25 μM

O=C(NC1c2c(F)ccc(C(=O)Nc3ccc(F)c(Cl)c3)c2CC1(F)F)OCc1ccccn1 (centres unmarked) [Compound 220, O-pyridin-2-ylmethyl, N-(4-((3-chloro-4-fluorophenyl)carbamoyl)-2,2,7-trifluoro-2,3-dihydro-1H-inden-1-yl) carbamate]
EC50 [1]: 10 µM

O=C(Nc1ccc(F)c(Cl)c1)c1ccc(F)c2c1CC[C@@H]2NS(=O)(=O)CC1CC1 [Compound 221, (S)—N-(3-Chloro-4-fluorophenyl)-1-((cyclopropylmethyl)sulfonamido)-7-fluoro-2,3-dihydro-1H-indene-4-carboxamide]
EC50 [2]: 0.21 µM

O=C(Nc1ccc(F)c(Cl)c1)c1ccc(F)c2c1CC[C@@H]2NS(=O)(=O)Cc1ccccc1 [Compound 222, (S)—N-(3-Chloro-4-fluorophenyl)-7-fluoro-1-((phenylmethyl)sulfonamido)-2,3-dihydro-1H-indene-4-carboxamide]
EC50 [2]: 0.3 µM

CC1(NC(=O)OCc2ccccn2)CCc2c(C(=O)Nc3ccc(F)c(Cl)c3)ccc(F)c21 (centres unmarked) [Compound 224, O-Pyridin-2-ylmethyl, N-(4-((3-chloro-4-fluorophenyl)carbamoyl)-7-fluoro-1-methyl-2,3-dihydro-1H-inden-1-yl) carbamate]
EC50 [1]: 11 µM

CC1(NC(=O)OCc2ccccn2)CCc2c(C(=O)Nc3ccc(F)c(Cl)c3)ccc(F)c21 (centres unmarked) [Compound 225, O-Pyridin-2-ylmethyl, N-(4-((3-chloro-4-fluorophenyl)carbamoyl)-7-fluoro-1-methyl-2,3-dihydro-1H-inden-1-yl) carbamate]
EC50 [1]: 2 µM

O=C(N[C@H]1CCc2c(C(=O)Nc3ccc(F)c(Cl)c3)ccc(F)c21)OC1CC1 [Compound 226, O-cyclopropyl, N—(S)-(4-((3-chloro-4-fluorophenyl)carbamoyl)-7-fluoro-2,3-dihydro-1H-inden-1-yl)carbamate]
EC50 [2]: 0.24 µM

CNS(=O)(=O)N[C@H]1CCc2c(C(=O)Nc3ccc(F)c(Cl)c3)ccc(F)c21 [Compound 227, (S)—N-(3-Chloro-4-fluorophenyl)-7-fluoro-1-((N-methylsulfamoyl)amino)-2,3-dihydro-1H-indene-4-carboxamide]
EC50 [2]: 0.43 µM

O=C(Nc1ccc(F)c(Cl)c1)c1ccc(F)c2c1CC[C@@H]2NS(=O)(=O)N1CCOCC1 [Compound 228, (S)—N-(3-Chloro-4-fluorophenyl)-7-fluoro-1-(morpholine-4-sulfonamido)-2,3-dihydro-1H-indene-4-carboxamide]
EC50 [2]: 0.2 µM

O=C(N[C@H]1CCc2c(C(=O)Nc3ccc(F)c(Cl)c3)cccc21)OC1CC1 [Compound 229, O-cyclopropyl, N-(S)-(4-((3-chloro-4-fluorophenyl)carbamoyl)-2,3-dihydro-1H-inden-1-yl) carbamate]
EC50 [1]: 0.36 µM

CNS(=O)(=O)N[C@H]1CCc2c(C(=O)Nc3ccc(F)c(Cl)c3)cccc21 [Compound 230, (S)-N-(3-chloro-4-fluorophenyl)-1-((N-methylsulfamoyl)amino)-2,3-dihydro-1H-indene-4-carboxamide]
EC50 [2]: 0.36 µM

O=C(N[C@H]1CCc2c(C(=O)Nc3ccc(F)c(Cl)c3)ccc(F)c21)OCc1nnco1 [Compound 231, O-(1,3,4-oxadiazol-2-yl)methyl, N-(S)-(4-((3-chloro-4-fluorophenyl)carbamoyl)-7-fluoro-2,3-dihydro-1H-inden-1-yl) carbamate]
EC50 [1]: 0.13 µM

CCS(=O)(=O)N[C@H]1CCc2c(C(=O)Nc3ccc(F)c(Cl)c3)ccc(F)c21 [Compound 232, (S)—N-(3-Chloro-4-fluorophenyl)-1-(ethylsulfonamido)-7-fluoro-2,3-dihydro-1H-indene-4-carboxamide]
EC50 [2]: 0.24 µM

CCCS(=O)(=O)N[C@H]1CCc2c(C(=O)Nc3ccc(F)c(Cl)c3)ccc(F)c21 [Compound 233, (S)—N-(3-Chloro-4-fluorophenyl)-7-fluoro-1-(propylsulfonamido)-2,3-dihydro-1H-indene-4-carboxamide]
EC50 [2]: 0.33 µM

CC(C)CS(=O)(=O)N[C@H]1CCc2c(C(=O)Nc3ccc(F)c(Cl)c3)ccc(F)c21 [Compound 234, (S)—N-(3-Chloro-4-fluorophenyl)-7-fluoro-1-((2-methylpropyl)sulfonamido)-2,3-dihydro-1H-indene-4-carboxamide]
EC50 [2]: 0.34 µM

CNC(=O)NC1c2c(F)ccc(C(=O)Nc3ccc(F)c(Cl)c3)c2CC1OC (centres unmarked) [Compound 235, N-(3-chloro-4-fluorophenyl)-7-fluoro-2-methoxy-1-(3-methylureido)-2,3-dihydro-1H-indene-4-carboxamide]
EC50 [2]: 4.5 µM

COC(=O)NC1c2c(F)ccc(C(=O)Nc3ccc(F)c(Cl)c3)c2CC1OC (centres unmarked) [Compound 236, O-methyl, N-(4-((3-chloro-4-fluorophenyl)carbamoyl)-7-fluoro-2-methoxy-2,3-dihydro-1H-inden-1-yl)carbamate]
EC50 [2]: 0.34 µM

CC(C)NS(=O)(=O)N[C@H]1CCc2c(C(=O)Nc3ccc(F)c(Cl)c3)ccc(F)c21 [Compound 237, (S)-N-(3-chloro-4-fluorophenyl)-7-fluoro-1-((N-isopropylsulfamoyl)amino)-2,3-dihydro-1H-indene-4-carboxamide]
EC50 [2]: 0.58 µM

CC(C)S(=O)(=O)N[C@H]1CCc2c(C(=O)Nc3ccc(F)c(Cl)c3)ccc(F)c21 [Compound 238, (S)—N-(3-Chloro-4-fluorophenyl)-7-fluoro-1-((1-methylethyl)sulfonamido)-2,3-dihydro-1H-indene-4-carboxamide]
EC50 [2]: 0.19 µM

O=C(Nc1ccc(F)c(Cl)c1)c1ccc(F)c2c1CC[C@@H]2NS(=O)(=O)C1CCCC1 [Compound 239, (S)—N-(3-Chloro-4-fluorophenyl)-1-(cyclopentanesulfonamido)-7-fluoro-2,3-dihydro-1H-indene-4-carboxamide]
EC50 [2]: 0.24 µM

O=C(Nc1ccc(F)c(Cl)c1)c1ccc(F)c2c1CC[C@@H]2NS(=O)(=O)C1CCCCC1 [Compound 240, (S)—N-(3-Chloro-4-fluorophenyl)-1-(cyclohexanesulfonamido)-7-fluoro-2,3-dihydro-1H-indene-4-carboxamide]
EC50 [2]: 0.51 µM

CNC(=O)NC1CC(C)(C)c2c(C(=O)Nc3ccc(F)c(Cl)c3)ccc(F)c21 (centres unmarked) [Compound 241, N-(3-chloro-4-fluorophenyl)-7-fluoro-3,3-dimethyl-1-(3-methylureido)-2,3-dihydro-1H-indene-4-carboxamide]
EC50 [2]: 24 µM

O=C(Nc1ccc(F)c(Cl)c1)c1cccc2c1CC[C@@H]2NS(=O)(=O)NC1CC1 [Compound 242, (S)-N-(3-chloro-4-fluorophenyl)-1-((N-cyclopropylsulfamoyl)amino)-2,3-dihydro-1H-indene-4-carboxamide]
EC50 [2]: 0.57 µM

O=C(Nc1ccc(F)c(Cl)c1)c1ccc(F)c2c1CC[C@@H]2NS(=O)(=O)NC1CC1 [Compound 243, (S)-N-(3-chloro-4-fluorophenyl)-1-((N-cyclopropylsulfamoyl)amino)-7-fluoro-2,3-dihydro-1H-indene-4-carboxamide]
EC50 [2]: 0.16 µM

COC(=O)NC1c2c(F)ccc(C(=O)Nc3ccc(F)c(F)c3)c2CC1OC (centres unmarked) [Compound 244, O-methyl, N-(4-((3,4-difluorophenyl)carbamoyl)-7-fluoro-2-methoxy-2,3-dihydro-1H-inden-1-yl) carbamate]
EC50 [1]: 2 µM

CNC(=O)NC1c2c(F)ccc(C(=O)Nc3ccc(F)c(F)c3)c2CC1OC (centres unmarked) [Compound 245, N-(3,4-difluorophenyl)-7-fluoro-2-methoxy-1-(3-methylureido)-2,3-dihydro-1H-indene-4-carboxamide]
EC50 [2]: 4.9 µM

COC1Cc2c(C(=O)Nc3ccc(F)c(F)c3)ccc(F)c2C1NC(=O)OCc1ccccn1 (centres unmarked) [Compound 246, O-pyridin-2-ylmethyl, N-(4-((3,4-difluorophenyl)carbamoyl)-7-fluoro-2-methoxy-2,3-dihydro-1H-inden-1-yl)carbamate]
EC50 [2]: 2.7 µM

COC1Cc2c(C(=O)Nc3ccc(F)c(Cl)c3)ccc(F)c2C1NC(=O)OCc1ccccn1 (centres unmarked) [Compound 247, O-pyridin-2-ylmethyl, N-(4-((3-chloro-4-fluorophenyl)carbamoyl)-7-fluoro-2-methoxy-2,3-dihydro-1H-inden-1-yl)carbamate]
EC50 [2]: 0.68 µM

O=C(N[C@H]1CCc2c(C(=O)Nc3ccc(F)c(Cl)c3)ccc(F)c21)OCc1ncn(C2CCCCO2)n1 (stereo partly drawn) [Compound 248, O-(1-(tetrahydro-2H-pyran-2-yl)-1H-1,2,4-triazol-3-yl)methyl, N-((S)-4-((3-chloro-4-fluorophenyl)carbamoyl)-7-fluoro-2,3-dihydro-1H-inden-1-yl) carbamate]
EC50 [1]: 0.15 µM

O=C(Nc1ccc(F)c(Cl)c1)c1ccc(F)c2c1CCC2=O [Compound 251, N-(3-Chloro-4-fluorophenyl)-7-fluoro-1-oxo-2,3-dihydro-1H-indene-4-carboxamide]
EC50 [2]: 0.55 µM

[2H]C([2H])(OC(=O)N[C@H]1CCc2c(C(=O)Nc3ccc(F)c(Cl)c3)ccc(F)c21)c1ncn(C([2H])([2H])[2H])n1 [Compound 252, O-((1-(Methyl-d3)-1H-1,2,4-triazol-3-yl)methyl-d2, N—(S)-(4-((3-chloro-4-fluorophenyl)carbamoyl)-7-fluoro-2,3-dihydro-1H-inden-1-yl) carbamate]
EC50 [2]: 0.13 µM

O=C(N[C@H]1CCc2c(C(=O)Nc3ccc(F)c(Cl)c3)ccc(F)c21)OCc1ncn(COP(=O)(O)O)n1 [Compound 253, O-(1-((Phosphonoxy)methyl)-1H-1,2,4-triazol-3-yl)methyl, N—(S)-(4-((3-chloro-4-fluorophenyl)carbamoyl)-7-fluoro-2,3-dihydro-1H-inden-1-yl) carbamate]
EC50 [3]: 0.12 µM

O=C(N[C@H]1CCc2c(C(=O)Nc3ccc(F)c(Cl)c3)ccc(F)c21)OCc1ccn(COP(=O)(O)O)n1 [Compound 254, Sodium (S)-(3-((((4-((3-chloro-4-fluorophenyl)carbamoyl)-7-fluoro-2,3-dihydro-1H-inden-1-yl)carbamoyl)oxy)methyl)-1H-pyrazol-1-yl)methyl phosphate]
EC50 [3]: 0.57 µM
